From patent US8008346B2, “Chemotherapeutic agents for inhibition of protein translation” (The Royal University for the Advancement of Learning/McGill …, priority 2006, dated 2011)

Columns and labels:
HeLa cells = experiment: 35S-methionine incorporation (protein synthesis) in HeLa cells; format: cell-based
Method: FIG. 4. Effect of hippuristanol on protein, RNA and DNA synthesis in cells. A. Relative rate of ^35S-methionine incorporation as a function of hippuristanol concentration in HeLa cells. Cells were exposed to the indicated concentration of compound for 50 min., followed by a 10 min. labeling period with ^35S-methionine in the presence of compound. The rate of protein synthesis (TCA precipitable cpm) obtained in the presence of compound was normalized to the rate obtained in the presence of DMSO (which was set at 1). The rate of protein synthesis in the control reactions (containing DMSO vehicle) averaged ˜700,000 cpm/10 min. labeling period. Results are shown for two experiments and the error of the mean is presented. The relative rate of ^35S-methionine incorporation in HeLa cells exposed to 10 μM anisomycin (positive control) for 60 min. was ˜0.02 (data not shown). B. Effect of hippuristanol on protein (gray circles), DNA (open squares), and RNA (solid squares) synthesis in HeLa cells. The rate of macromolecular synthesis (TCA precipitable cpm for a 10 min. labeling period) obtained in the presence of 1 μM hippuristanol was normalized to the rate obtained in the presence of DMSO and is plotted. The results are shown for two experiments and the error of the mean is presented. The rate of protein, RNA and DNA synthesis in the control reactions (containing DMSO vehicle) averaged ˜900,000 cpm/10 min, ˜16,000 cpm/10 min. and 7,000 cpm/10 min labeling, respectively. The relative rate of ^35S-methionine incorporation by HeLa cells exposed to 10 μM anisomycin for 60 min. (positive control for inhibition of protein synthesis) was 0.02 (data not shown). The relative rate of ^3H-uridine incorporation by HeLa cells exposed to 50 μM actinomycin (positive control for inhibition of RNA synthesis) for 60 min. was 0.01 (data not shown). C. […] Gradients were analyzed by piercing the tube with a Brandel tube piercer, passing 60% sucrose through the bottom of the tube, and monitoring the absorbance of the material eluting from the tube using an ISCO UA-6 UV Detector.

eIF4AIf = target: T1, eIF4AIf (Mus musculus, UniProt P60843); experiment: UV crosslinking of alpha-32P-ATP to recombinant eIF4AIf; format: binding, murine; settings: 50 μM
T1 construct: inferred only from the Ni-NTA purification; made in house; host or cells: Escherichia coli BL21 (DE3) codon+
T1 sequence (P60843 whole entry): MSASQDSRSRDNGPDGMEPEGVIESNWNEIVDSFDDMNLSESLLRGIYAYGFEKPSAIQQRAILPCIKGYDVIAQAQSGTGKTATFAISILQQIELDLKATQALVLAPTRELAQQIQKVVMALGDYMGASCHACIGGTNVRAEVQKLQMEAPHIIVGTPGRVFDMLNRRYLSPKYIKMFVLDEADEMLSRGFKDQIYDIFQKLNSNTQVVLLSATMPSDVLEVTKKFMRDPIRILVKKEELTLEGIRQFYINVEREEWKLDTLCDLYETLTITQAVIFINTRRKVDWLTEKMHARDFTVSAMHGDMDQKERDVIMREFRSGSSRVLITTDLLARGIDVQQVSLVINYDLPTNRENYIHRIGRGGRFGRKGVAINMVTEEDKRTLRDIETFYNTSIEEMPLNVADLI
Method: FIG. 7. Effects of hippuristanol on ATP hydrolysis, ATP binding, and RNA binding activities of eIF4A. A. Hippuristanol inhibits eIF4AIf RNA-dependent ATPase activity. The rate of ATP hydrolysis as a function of hippuristanol concentration is plotted relative to the rate obtained in the presence of vehicle (0.5% DMSO). ATP hydrolysis was measured in the presence of 2.5 μM poly (U) and monitored by thin layer chromatography. […] Samples were resolved by SDS-PAGE and subjected to autoradiography. C. The RNA binding activity of eIF4AIf is inhibited by hippuristanol. Oxidized ^32P-cap labeled CAT mRNA was incubated with recombinant eIF4AIf in the absence (lane 2) or presence of ATP (lanes 1, 3-6), 0.6 mM m^7GDP (lane 3), 0.6 mM GDP (lane 4), or 50 μM hippuristanol (lane 6). Following treatment with RNase A, samples were resolved by SDS-PAGE and subjected to autoradiography. The asterisk denotes the position of migration of a ˜30 kDa contaminant in the recombinant eIF4AIf preparation used as an internal loading reference. D. The RNA binding activity of eIF4Ac is inhibited by hippuristanol. Oxidized ^32P-cap labeled CAT mRNA was incubated with 0.7 μg of native eIF4F in the absence (lane 1) or presence (lane 2) of 50 μM hippuristanol. […]
Recombinant eIF4AI Purification and Assays. […] Quantifications were performed on a Fujix BAS2000 phosphoimager with a Fuji imaging screen. […]

C[C@H]1C[C@@]2(O[C@H]3C[C@H]4[C@@H]5CC[C@H]6C[C@H](O)CC[C@]6(C)[C@H]5[C@@H](O)C[C@]4(C)[C@H]3[C@@]2(C)O)OC1(C)C [Hippuristanol, hippuristanol]
eukaryotic protein synthesis (35S-methionine incorporation) (HeLa cells; FIG. 4): inhibits
reversibility of the inhibitory effect on protein synthesis (HeLa cells; HeLa cells, 1 μM for 60 min, then compound washed off): reversible
ATP crosslinking to eIF4AIf (eIF4AIf): does not affect
